Experimental data taken from patent US20230416203A1, “POTENT AND SELECTIVE INHIBITORS OF THE CALCIUM-ACTIVATED POTASSIUM CHANNEL, KCA3.1, FOR USE AS PLATFORM THERAPEUTICS” (priority 2020, published 2023).
“Also recorded” adds a separate entry of the source. Like-named read-outs stand apart in the source and are kept apart here.

Tests used:
KV3.1 = biological target: T1, KV3.1 (Mus musculus, UniProt P15388); assay: Potassium channels patch-clamp (QPatch), KV3.1; format: cell-based
T1 construct: expressed in transfected cells; host or cells: L929
T1 sequence (P15388 1-511): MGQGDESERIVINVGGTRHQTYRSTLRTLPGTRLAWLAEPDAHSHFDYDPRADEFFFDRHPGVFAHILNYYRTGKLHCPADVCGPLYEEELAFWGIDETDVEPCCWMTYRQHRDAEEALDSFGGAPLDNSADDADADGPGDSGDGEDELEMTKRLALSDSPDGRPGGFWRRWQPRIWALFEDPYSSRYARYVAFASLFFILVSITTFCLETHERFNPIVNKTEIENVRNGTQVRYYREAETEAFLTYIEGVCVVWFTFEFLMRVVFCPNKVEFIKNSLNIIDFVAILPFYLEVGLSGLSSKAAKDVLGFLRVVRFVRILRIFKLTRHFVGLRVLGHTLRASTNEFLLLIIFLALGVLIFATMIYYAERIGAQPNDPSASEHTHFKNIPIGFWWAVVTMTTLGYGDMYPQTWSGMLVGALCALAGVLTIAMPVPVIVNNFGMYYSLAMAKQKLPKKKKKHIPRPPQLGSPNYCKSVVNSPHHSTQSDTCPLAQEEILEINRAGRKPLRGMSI
Method: (§1) The effects of Group 4 compounds on related potassium channels were evaluated by patch-clamp using a QPatch HTX automated electrophysiology platform (Sophion, Denmark). The giga-seal and whole-cell requirements for the automated electrophysiology were the following: minimum seal resistance=0.1 GO, holding potential=−80 mV, holding pressure=−20 mbar; and positioning pressure=−70 mbar.

KV1.3 = biological target: T2, KV1.3 (Mus musculus, UniProt P16390); assay: Potassium channels patch-clamp (QPatch), KV1.3; format: cell-based
T2 construct: expressed in transfected cells; host or cells: L929
T2 sequence (P16390 whole entry): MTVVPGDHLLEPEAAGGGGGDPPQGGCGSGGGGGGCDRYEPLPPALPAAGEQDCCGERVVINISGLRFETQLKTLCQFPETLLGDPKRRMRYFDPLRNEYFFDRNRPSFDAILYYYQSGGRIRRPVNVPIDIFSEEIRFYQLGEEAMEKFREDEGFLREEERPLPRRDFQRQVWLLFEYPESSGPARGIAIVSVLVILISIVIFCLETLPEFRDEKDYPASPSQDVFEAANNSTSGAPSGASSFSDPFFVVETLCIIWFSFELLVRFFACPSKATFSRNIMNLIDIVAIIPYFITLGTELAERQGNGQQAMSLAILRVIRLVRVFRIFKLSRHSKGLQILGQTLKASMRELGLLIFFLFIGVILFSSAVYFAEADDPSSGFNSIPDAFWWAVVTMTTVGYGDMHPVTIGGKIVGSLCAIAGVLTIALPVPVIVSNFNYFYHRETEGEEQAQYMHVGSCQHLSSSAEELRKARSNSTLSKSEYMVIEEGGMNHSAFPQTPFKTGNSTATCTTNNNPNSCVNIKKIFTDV
Method: as §1

KCa1.1 = biological target: T3, KCa1.1 (Homo sapiens, UniProt Q12791); assay: Potassium channels patch-clamp (QPatch), KCa1.1; format: cell-based
T3 construct: expressed in transfected cells; host or cells: HEK
T3 sequence (Q12791 whole entry): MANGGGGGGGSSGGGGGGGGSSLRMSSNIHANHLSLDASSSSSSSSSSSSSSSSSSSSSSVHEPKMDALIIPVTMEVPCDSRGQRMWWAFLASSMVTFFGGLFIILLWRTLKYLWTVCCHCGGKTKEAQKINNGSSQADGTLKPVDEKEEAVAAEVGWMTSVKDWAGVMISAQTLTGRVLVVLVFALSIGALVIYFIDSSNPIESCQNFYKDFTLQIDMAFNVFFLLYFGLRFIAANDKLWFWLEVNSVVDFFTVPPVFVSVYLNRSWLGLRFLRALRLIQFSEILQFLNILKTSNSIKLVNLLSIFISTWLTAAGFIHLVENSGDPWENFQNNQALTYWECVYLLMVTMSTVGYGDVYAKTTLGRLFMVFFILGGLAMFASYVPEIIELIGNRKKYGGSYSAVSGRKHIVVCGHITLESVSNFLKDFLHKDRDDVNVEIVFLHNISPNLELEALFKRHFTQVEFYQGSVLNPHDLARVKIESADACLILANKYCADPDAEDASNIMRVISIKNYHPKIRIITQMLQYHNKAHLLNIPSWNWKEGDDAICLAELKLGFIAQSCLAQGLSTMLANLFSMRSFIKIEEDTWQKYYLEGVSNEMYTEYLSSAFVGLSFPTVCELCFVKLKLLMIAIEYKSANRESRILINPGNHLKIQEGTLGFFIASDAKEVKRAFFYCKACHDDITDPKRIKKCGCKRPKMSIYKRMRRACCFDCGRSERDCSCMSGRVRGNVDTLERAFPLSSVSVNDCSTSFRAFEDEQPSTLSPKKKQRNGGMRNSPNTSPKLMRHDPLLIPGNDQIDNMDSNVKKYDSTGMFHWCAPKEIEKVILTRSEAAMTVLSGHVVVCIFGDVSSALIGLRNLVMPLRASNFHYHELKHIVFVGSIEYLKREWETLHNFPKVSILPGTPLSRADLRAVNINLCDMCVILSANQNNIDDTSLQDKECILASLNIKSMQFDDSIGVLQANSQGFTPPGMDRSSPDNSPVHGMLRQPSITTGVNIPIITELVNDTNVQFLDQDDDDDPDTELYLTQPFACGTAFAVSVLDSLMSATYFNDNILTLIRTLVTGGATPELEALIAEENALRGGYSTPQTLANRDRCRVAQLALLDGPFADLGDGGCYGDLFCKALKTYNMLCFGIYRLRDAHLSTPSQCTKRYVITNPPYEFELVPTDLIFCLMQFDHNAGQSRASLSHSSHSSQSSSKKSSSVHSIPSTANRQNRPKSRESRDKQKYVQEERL
Method: as §1

KCa2.3 = biological target: T4, KCa2.3 (Homo sapiens, UniProt Q9UGI6); assay: Potassium channels patch-clamp (QPatch), KCa2.3; format: cell-based
T4 construct: expressed in transfected cells; host or cells: COS7
T4 sequence (Q9UGI6 whole entry): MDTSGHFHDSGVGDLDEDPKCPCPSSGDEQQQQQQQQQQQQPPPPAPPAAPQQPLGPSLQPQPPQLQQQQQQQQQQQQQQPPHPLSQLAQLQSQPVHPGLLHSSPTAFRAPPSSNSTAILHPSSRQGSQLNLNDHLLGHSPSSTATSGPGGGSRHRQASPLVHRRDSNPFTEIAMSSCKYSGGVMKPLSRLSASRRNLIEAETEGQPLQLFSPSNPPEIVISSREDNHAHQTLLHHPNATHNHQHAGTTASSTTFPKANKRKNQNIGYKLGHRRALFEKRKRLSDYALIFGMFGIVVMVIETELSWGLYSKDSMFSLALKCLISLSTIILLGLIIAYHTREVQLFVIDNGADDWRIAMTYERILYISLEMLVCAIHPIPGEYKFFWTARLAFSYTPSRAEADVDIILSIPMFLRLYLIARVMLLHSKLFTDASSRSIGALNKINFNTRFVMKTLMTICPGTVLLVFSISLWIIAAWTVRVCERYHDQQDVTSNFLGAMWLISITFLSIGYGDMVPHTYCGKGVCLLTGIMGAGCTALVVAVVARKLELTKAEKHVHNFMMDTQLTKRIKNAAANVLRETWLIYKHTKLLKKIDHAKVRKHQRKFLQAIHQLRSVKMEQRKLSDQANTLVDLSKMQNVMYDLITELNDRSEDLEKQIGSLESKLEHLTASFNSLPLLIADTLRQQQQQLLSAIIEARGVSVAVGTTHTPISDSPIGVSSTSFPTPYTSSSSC
Method: as §1

[1] = Plasma protein binding assay (equilibrium dialysis), human plasma; format: in vitro ADME; details: pH 7.4
Method: Human and mouse plasma (150 μL) containing test compound (3 μM, final concentration) and sodium phosphate buffer (150 μL, 100 mM, pH 7.4) were added to the equilibrium dialysis device and equilibrated at 37° C. for 4.5 h with constant shaking. After equilibration, 10 μL of the plasma was taken out from the first half of the well and mixed with 50 μL of blank buffer, and later quenched with 200 μL of 0.05% formic acid in ACN containing 100 ng/mL of Loperamide, Phenacetin & Tolbutamide as internal standards. Similarly, 50 μL of […] was taken from the second half of the well and mixed with 10 μL of blank […] before quenching. […] All samples were centrifuged at 14,000 rpm for 5 min at 4° C. Warfarin and naltrexone were used as positive controls. Supernatant of all samples were analyzed by LC-MS/MS.

KCa2.2 = biological target: T5, KCa2.2 (Rattus norvegicus, UniProt P70604); assay: Potassium channels patch-clamp (QPatch), KCa2.2; format: cell-based
T5 construct: expressed in transfected cells; host or cells: HEK
T5 sequence (P70604 whole entry): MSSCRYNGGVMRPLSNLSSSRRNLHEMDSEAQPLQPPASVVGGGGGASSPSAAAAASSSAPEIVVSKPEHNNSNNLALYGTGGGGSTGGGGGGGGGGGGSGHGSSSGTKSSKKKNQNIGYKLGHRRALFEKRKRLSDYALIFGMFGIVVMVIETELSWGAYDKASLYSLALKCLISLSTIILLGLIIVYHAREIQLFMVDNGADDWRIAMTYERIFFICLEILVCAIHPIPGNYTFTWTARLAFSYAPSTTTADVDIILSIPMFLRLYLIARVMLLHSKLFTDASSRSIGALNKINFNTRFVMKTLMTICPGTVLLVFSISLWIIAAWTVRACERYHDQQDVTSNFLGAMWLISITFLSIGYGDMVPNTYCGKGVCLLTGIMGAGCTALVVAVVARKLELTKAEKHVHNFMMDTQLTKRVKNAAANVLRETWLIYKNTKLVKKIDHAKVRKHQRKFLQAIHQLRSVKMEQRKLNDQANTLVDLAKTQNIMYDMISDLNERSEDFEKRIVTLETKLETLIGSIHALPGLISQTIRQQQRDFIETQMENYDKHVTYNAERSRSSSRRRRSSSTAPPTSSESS
Method: as §1

KV1.1 = biological target: T6, KV1.1 (Mus musculus, UniProt P16388); assay: Potassium channels patch-clamp (QPatch), KV1.1; format: cell-based
T6 construct: expressed in transfected cells; host or cells: L929
T6 sequence (P16388 whole entry): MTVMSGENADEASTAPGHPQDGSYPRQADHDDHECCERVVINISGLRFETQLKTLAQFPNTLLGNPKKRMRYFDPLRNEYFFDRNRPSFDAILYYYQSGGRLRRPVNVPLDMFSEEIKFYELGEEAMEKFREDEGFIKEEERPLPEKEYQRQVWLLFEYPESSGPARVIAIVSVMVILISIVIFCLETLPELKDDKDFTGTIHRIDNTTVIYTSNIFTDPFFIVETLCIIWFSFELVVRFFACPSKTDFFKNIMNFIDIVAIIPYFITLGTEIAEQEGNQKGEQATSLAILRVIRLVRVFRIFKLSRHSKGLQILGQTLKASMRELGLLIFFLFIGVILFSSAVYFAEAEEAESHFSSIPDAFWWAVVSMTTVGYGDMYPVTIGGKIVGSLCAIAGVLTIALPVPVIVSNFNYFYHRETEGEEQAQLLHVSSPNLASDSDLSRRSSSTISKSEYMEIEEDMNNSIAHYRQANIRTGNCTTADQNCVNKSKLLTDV
Method: as §1

[2] = biological target: CaV1.2 channel over KCa3.1 (Homo sapiens, UniProt Q13936); assay: in vitro; details: pH 7.4
Method: The external solution contained (in mM): 140 TEA-Cl; 2 MgCl2; 10 CaCl2; 10 HEPES; and 5 D-glucose (pH=7.4). The internal solution contained (in mM): 120 CsCl; 1 MgCl2; 10 HEPES; 10 EGTA; 0.3 Na2-GTP; and 4 Mg-ATP (pH=7.2). Following establishment of the whole-cell configuration, CaV1.2 current was recorded at holding membrane potential of −80 mV and then depolarized to +10 mV (test pulse was modified slightly due to lead IV test) for 0.3 s. This protocol was repeated at 20 s intervals to observe the effect of the test compounds on the peak of CaV1.2 current. Each cell was incubated with each test compound for 5 min, or until the current reached steady-state. The compounds were applied at multiple concentrations from low to high. Each cell acted as its own control. The decreases in the peak currents were used to determine the IC50 for CaV1.2 inhibition. Curve-fitting and IC50 calculations were performed using IGOR software.

KV1.4 = biological target: T7, KV1.4 (Homo sapiens, UniProt P22459); assay: Potassium channels patch-clamp (QPatch), KV1.4; format: cell-based
T7 construct: expressed in transfected cells; host or cells: LTK
T7 sequence (P22459 whole entry): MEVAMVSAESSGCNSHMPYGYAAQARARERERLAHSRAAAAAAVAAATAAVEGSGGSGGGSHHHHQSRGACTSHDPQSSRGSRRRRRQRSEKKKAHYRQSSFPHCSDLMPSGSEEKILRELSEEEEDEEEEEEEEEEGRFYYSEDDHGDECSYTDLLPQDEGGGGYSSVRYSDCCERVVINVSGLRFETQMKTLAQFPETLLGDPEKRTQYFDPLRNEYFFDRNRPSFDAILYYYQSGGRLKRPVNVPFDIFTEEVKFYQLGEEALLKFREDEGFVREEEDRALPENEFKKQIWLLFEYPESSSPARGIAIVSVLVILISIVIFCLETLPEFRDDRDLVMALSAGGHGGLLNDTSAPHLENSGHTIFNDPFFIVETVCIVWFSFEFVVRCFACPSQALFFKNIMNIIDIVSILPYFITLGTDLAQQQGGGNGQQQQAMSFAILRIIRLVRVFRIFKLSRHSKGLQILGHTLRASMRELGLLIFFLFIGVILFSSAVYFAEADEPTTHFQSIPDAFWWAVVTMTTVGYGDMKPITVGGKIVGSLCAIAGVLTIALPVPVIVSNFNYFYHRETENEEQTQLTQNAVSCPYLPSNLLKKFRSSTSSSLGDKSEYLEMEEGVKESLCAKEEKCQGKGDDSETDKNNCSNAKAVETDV
Method: as §1

[3] = Plasma and liver studies after 14 days of repeated oral dose; format: in vivo, C57/BL6 mice; details: C57/BL6, mouse; for Kp at 14 days: liver/plasma, read-out: Liver to Plasma Ratio
[4] = system: Iba1+CD11b+ double positive microglia; assay: Immunohistochemistry analysis on microglia and leukocytes markers in MCAO brains; format: in vivo, rats; details: 10 mg/kg, day 7, brain areas CA1, CPu, M1 and S1, vs MCAO or vehicle groups
Method: The animals were anaesthetized with isoflurane (RWD Life Science), perfused and fixed with 4% PFA (Sinopharm Chemical Reagent). The brain tissues were further soaked in 4% PFA […] at 4° C. overnight and then treated with a gradient of sucrose solutions (20-30%, Sinopharm Chemical Reagent) before being embedded with OCT (Leica) and frozen at −80° C. For immunofluorescence staining, the brain slices from primary somatosensory cortex (S1), primary motor cortex (M1), field CA1 of hippocampus (CA1) and caudate putamen (striatum, CPu) were heated for 30 min and then washed with 0.01 M PBS (pH=7.2-7.4, 5 min×3). After washing, the sections were blocked with 0.3% TritonX-100 (Solarbio) in 10% sheep serum (Solarbio) at RT for 1 h. Following removal of the blocking solution, the brain sections were incubated with primary antibodies Iba1 (Proteintech, Cat.10904-1-AP) and CD11b (Thermo Fisher, Cat. MA5-17857) overnight at 4° C. Following 3 washes with 0.01 M PBS (5 min each), the sections were incubated with Backlight plus secondary antibody (Abcam, Cat. ab150113; Cat.ab150080) at RT for 2 h. After 3 washes, the nuclei were stained with 4′, 6-diamidino-2-phenylindole (DAPI, Beyotime Biotech, Cat. C1006). […] The number of Iba1^+CD11b^+ double positive microglia were analyzed by Image J V1.8.0. […]

[5] = system: middle cerebral artery occlusion (MCAO); assay: MCAO ischemia-reperfusion model, infarct volume (TTC staining); format: in vivo, SD male rats
[6] = system: panel of other molecular targets
Method: The results are expressed as a percent inhibition of control specific binding [100-(measured specific binding/control specific binding*100)]. The IC50 values and Hill coefficients (nH) were determined by non-linear regression analysis of the competition curves generated with mean replicate values using Hill equation curve fitting performed with software developed at Cerep (Hill software) and validated by comparison with data generated by the commercial software SigmaPlot® 4.0.

Work on `COC(=O)C1=C(C)NC(C)=C(C(=O)OC)C1c1ccc(F)c(C(F)(F)F)c1` [Compound 101] yielded an IC50 (KV3.1) of over 10 µM, an IC50 (KV1.3) of over 10 µM and an IC50 (KCa1.1) of over 10 µM. It also gave an IC50 (KCa2.3) of 8 µM, a fraction unbound at 4.5 h, 3 μM [1] of 0.0073 and an IC50 (KCa2.2) of over 10 µM. It also gave an IC50 (KV1.1) of over 10 µM, a selectivity ratio [2] of 200 and an IC50 (KV1.4) of over 10 µM.
`COC(=O)C1=CNC=C(C(=O)OC)C1c1ccc(F)c(C(F)(F)F)c1` [Compound 103, Dimethyl 4-(4-fluoro-3-(trifluoromethyl)phenyl)-1,4-dihydropyridine-3,5-dicarboxylate] gave an IC50 (KV3.1) of over 10 µM, an IC50 (KV1.3) of over 10 µM and an IC50 (KCa1.1) of over 10 µM. It also gave a Kp at 14 days ([3]; 25 mg/kg BID oral 14 days, Female mice) of 85.6, a Kp at 14 days ([3]; 25 mg/kg BID oral 14 days, Male mice) of 36 and a Kp at 14 days ([3]; 50 mg/kg BID oral 14 days, Female mice) of 31.9. For the same compound, the Kp at 14 days ([3]; 50 mg/kg BID oral 14 days, Male mice) was 19.6, the concentration at 14 days ([3]; liver, 25 mg/kg BID oral 14 days, Female mice, read-out: Average Concentration Liver) was 8420 ng/g and the concentration at 14 days ([3]; liver, 25 mg/kg BID oral 14 days, Male mice, read-out: Average Concentration Liver) was 10100 ng/g. It also gave a concentration at 14 days ([3]; liver, 50 mg/kg BID oral 14 days, Female mice, read-out: Average Concentration Liver) of 12100 ng/g, a concentration at 14 days ([3]; liver, 50 mg/kg BID oral 14 days, Male mice, read-out: Average Concentration Liver) of 17500 ng/g and a concentration at 14 days ([3]; plasma, 25 mg/kg BID oral 14 days, Female mice, read-out: Average Concentration Plasma) of 100 ng/mL. For the same compound, the concentration at 14 days ([3]; plasma, 25 mg/kg BID oral 14 days, Male mice, read-out: Average Concentration Plasma) was 297 ng/mL, the concentration at 14 days ([3]; plasma, 50 mg/kg BID oral 14 days, Female mice, read-out: Average Concentration Plasma) was 401 ng/mL and the concentration at 14 days ([3]; plasma, 50 mg/kg BID oral 14 days, Male mice, read-out: Average Concentration Plasma) was 929 ng/mL. The “number of Iba1+CD11b+ double positive activated microglia” value [4] was “significantly reduced; also recorded: effectively reduced”, the “reduction of infarct volume” value ([5]; 10 mg/kg intraperitoneal twice daily, 7 days, rat MCAO) was about 50% and the infarct volume ([5]; rat MCAO 60 min, 7 days reperfusion, vs vehicle and Edaravone 5 mg/kg) was “more effective than Edaravone; also recorded: effectively reduced infarct volume”. The IC50 (KCa2.2) was over 10 µM, the “selectivity for KCa3.1 over other channels and a panel of ~100 molecular targets” value [6] was over 1000 fold and the IC50 (KV1.1) was over 10 µM. The selectivity ratio [2] was 2210 and the IC50 (KV1.4) was over 10 µM.
